Assay results published in ChEMBL document CHEMBL5608167, “Nanomaterials-based advanced systems for photothermal / photodynamic therapy of oral cancer” (2024).

What was measured:
[1] = test system: HeLa; assay: Antitumor activity against human HeLa cells xenografted in mouse model assessed as tumor growth inhibition at 20 mg/kg treated for 10 days relative to control; assay type: functional; set-up: scale not given: the % may be the effect or the level left; conditions: time 10 day
[2] = test system: CAL-27; assay: Inhibition of cell proliferation in human CAL-27 cells at 1uM incubated for 72 hrs by MTT assay relative to control; assay type: functional

Structure (SMILES)	Activity [1]	inhibition at 1 µM [2]
CCOCCNC(=O)/C(C)=C\C[C@@]12OC(C)(C)[C@@H]3C[C@@H](C=C4C(=O)c5c(O)c(C/C=C(\C)CCC=C(C)C)c(O)c(CC=C(C)C)c5O[C@]431)C2=O	70%	–
NCC(=O)CCC(=O)O [AMINOLEVULINIC ACID]	–	75.4%
